The source of these data is patent US20130317048A1, “COMBINATION COMPRISING PACLITAXEL FOR TREATING OVARIAN CANCER” (Actelion Pharmaceuticals Ltd., priority 2008, published 2013).

In one data set the test system is SKOV3ip1 cells. Briefly: Human SKOV3ip1 tumor growth inhibition assay in mice. Format: in vivo. As to conditions: mice i.p. SKOV3ip1, after one month of treatment, paclitaxel 5 mg/kg once a week i.p., CF(I) 100 mg/kg once a day oral. The protocol:
An aqueous 0.5% (by weight) solution of methylcellulose is prepared by stiffing the appropriate quantity of methylcellulose in the appropriate quantity of water for 4 hours. This solution can be prepared up to 3 days in advance. On the day of the experiment, 0.05% (by volume) of Tween 80 is dissolved in the methylcellulose solution previously obtained to yield the vehicle solution.
(§1) 43 mice are injected i.p. with 10^6 SKOV3ip1 cells. Ten days later, the tumor weight is evaluated in three of the mice. Treatment with a suspension of the compound of formula (I) in the vehicle solution (10 mice), paclitaxel (Mead Johnson, Princeton, N.J., USA) diluted 1:6 in phosphate buffered saline (PBS) for i.p. injections (10 mice), a suspension of the compound of formula (I) in the vehicle solution as well as paclitaxel diluted 1:6 in PBS for further dilution and i.p. injections (10 mice), or the vehicle solution only (10 mice), the vehicle solution being as described above, is administered to the mice using the following doses, frequencies and routes: • paclitaxel: 5 mg/kg (125 μg paclitaxel in 200 μL PBS per mouse), once a week, i.p. route; • compound of formula (I): 100 mg/kg (as suspension in the vehicle solution at a concentration of up to 25 mg/mL), once a day, oral route.
After one month of treatment, the tumor incidence and weight are determined in each of the mice. At the same time, the ascite incidence and volume are also determined.

A further data set concerns HeyA8-MDR cells. Nature of the data set: Multi-drug resistant human ovarian HeyA8-MDR tumor growth inhibition assay in mice. The format is in vivo. As to conditions: female nude mice i.p. HeyA8-MDR; after 4 weeks of treatment; paclitaxel 5 mg/kg once a week i.p.; CF(I) 50 mg/kg once a day oral. The protocol: (§2) The vehicle solution is the same as that described for the “Human SKOV3ip1 tumor growth inhibition assay in mice” (see above).
43 female nude mice are injected i.p. with 10^6 HeyA8-MDR cells into the peritoneal cavity. Ten days later, the tumor weight is evaluated in three of the mice. Mice groups and treatments (doses, frequencies and routes) for the mice groups are the same as those described in the experimental procedure for the “Human IGROV tumor growth inhibition assay in mice” (see above). After 4 weeks of treatment, the tumor incidence and weight are determined in each of the mice.

The next data set deals with IGROV cells. Nature of the data set: Human IGROV tumor growth inhibition assay in mice. Format: in vivo. To be noted: female nude mice i.p. IGROV; after 4 weeks of treatment; paclitaxel 5 mg/kg once a week i.p.; CF(I) 50 mg/kg once a day oral. The protocol: as §2
as §1, with “43 female nude” for “43”, “IGROV cells into the peritoneal cavity.” for “SKOV3ip1 cells.”, “paclitaxel” for “paclitaxel (Mead Johnson, Princeton, N.J., USA)”, “for” for “for further dilution and”, “50” for “100”
After 4 weeks of treatment, the tumor incidence and weight are determined in each of the mice.

In another data set the test system is human ovarian carcinoma. To be noted: in vitro and in vivo; cited from earlier work.
For the next data set, the system named is ovarian tumor cells. As to conditions: in vitro; cited from earlier work.
For a further data set, the system named is ovarian cancer. As to conditions: combined with paclitaxel; cited from earlier work.

On to `CCCNS(=O)(=O)Nc1ncnc(OCCOc2ncc(Br)cn2)c1-c1ccc(Br)cc1` [CF(I), macitentan], for which, in the data set on SKOV3ip1 cells, the Ascite incidence was 7/10, the “Ascites (mL) Median (range)” value is recorded as 0.4 (0-4.7) mL, the “Body weight (g) Mean ± S.D.” value worked out at 25.5 ± 2.6 g and the Tumor incidence is recorded as 7/10. For the same compound, the “Tumor weight (g) Median (range)” value in the data set on SKOV3ip1 cells is 2.3 (0-4.6) g. For the same compound, the Ascite incidence in the data set with SKOV3ip1 cells (listed as compound of formula (I)) is recorded as 7 out of 10. For the same compound, in the data set with HeyA8-MDR cells, the “Body weight (g) Mean ± S.D.” value was determined as 27.0 ± 2.2 g, the Tumor incidence was 6/10 and the “Tumor weight (g) Median (range)” value is 0.1 (0-0.3) g. In addition, in the data set on IGROV cells, the “Body weight (g) Mean ± S.D.” value was found to be 31.0 ± 4.4 g, the Tumor incidence is given as 10/10 and the “Tumor weight (g) Median (range)” value is on record as 0.7 (0.4-1.3) g.

Take `CC(=O)O[C@H]1C(=O)[C@@]2(C)[C@H]([C@H](OC(=O)c3ccccc3)[C@]3(O)C[C@H](OC(=O)[C@H](O)[C@@H](NC(=O)c4ccccc4)c4ccccc4)C(C)=C1C3(C)C)[C@]1(OC(C)=O)CO[C@@H]1C[C@@H]2O` [Paclitaxel]: in the data set with SKOV3ip1 cells, the Ascite incidence was 4/9, the “Ascites (mL) Median (range)” value was 0.1 (0-0.2) mL, the “Body weight (g) Mean ± S.D.” value is 23.6 ± 1.9 g and the Tumor incidence is given as 9/9. In the data set with SKOV3ip1 cells, the “Tumor weight (g) Median (range)” value is on record as 0.4 (0.1-0.5) g. In the data set with SKOV3ip1 cells (listed as paclitaxel), the Ascite incidence is 4 out of 9 and the Tumor incidence result was “all mice still had tumors”. Also, in the data set on HeyA8-MDR cells, the “Body weight (g) Mean ± S.D.” value is 27.7 ± 3.7 g, the Tumor incidence is 10/10 and the “Tumor weight (g) Median (range)” value is given as 1.0 (0.5-2.3) g. Moreover, in the data set on IGROV cells, the “Body weight (g) Mean ± S.D.” value worked out at 28.5 ± 2.4 g, the Tumor incidence is reported as 9/10 and the “Tumor weight (g) Median (range)” value was 0.5 (0-0.9) g.

`COc1nc(C)cnc1NS(=O)(=O)c1cccnc1-c1ccc(-c2nnco2)cc1` [ZD4054]: in the data set on human ovarian carcinoma, the “Effect on tumor growth and paclitaxel activity” value was “inhibits tumor growth and enhances paclitaxel activity”.

`CCCC[C@@H](NC(=O)[C@@H](Cc1cn(C(=O)OC)c2ccccc12)NC(=O)[C@H](CC(C)(C)C)NC(=O)N1[C@H](C)CCC[C@@H]1C)C(=O)O` [BQ 788]: the “Inhibition of cell adhesiveness” value with ovarian tumor cells is “ineffective”.

As to `CCCCN(CCCC)C(=O)CN1C[C@H](c2ccc3c(c2)OCO3)[C@@H](C(=O)O)[C@@H]1c1ccc(OC)cc1` [ABT-627, atrasentan], the “Effect of combination with paclitaxel” value in the data set on ovarian cancer is “additive antitumor, apoptotic and antiangiogenic effects”.
